20 compounds from patent publication US7417068B2, “EP4 receptor antagonists” (Asterand UK Limited, priority 2003, dated 2008) can be followed below.

The target in one test is T1, human EP3 receptor (Homo sapiens, UniProt P43115).
T1 construct: expressed in transfected cells
T1 sequence (P43115 1-390): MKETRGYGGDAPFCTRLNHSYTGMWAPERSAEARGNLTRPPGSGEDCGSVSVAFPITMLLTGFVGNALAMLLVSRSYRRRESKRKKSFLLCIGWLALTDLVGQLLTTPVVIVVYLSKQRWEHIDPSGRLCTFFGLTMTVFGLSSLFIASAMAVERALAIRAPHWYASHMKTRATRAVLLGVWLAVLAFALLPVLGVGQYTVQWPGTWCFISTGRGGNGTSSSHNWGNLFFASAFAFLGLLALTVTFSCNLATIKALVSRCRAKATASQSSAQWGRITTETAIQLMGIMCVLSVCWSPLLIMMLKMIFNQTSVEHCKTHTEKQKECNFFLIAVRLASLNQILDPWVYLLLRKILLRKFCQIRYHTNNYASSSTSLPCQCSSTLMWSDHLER
Briefly: Binding ability to human EP receptors ([3H]PGE2 displacement), EP3. The conditions noted are these: membranes from cells stably transfected with human EP3 receptor; 2.5 nM [3H]PGE2; Cheng-Prusoff from IC50; read-out: pKi EP3 (converted). How it is done:
(§1) Membranes were prepared from cells stably transfected with human EP receptor cDNA. In brief, cells were cultured to confluency, scraped from culture flasks, and centrifuged (800 g, 8 minutes, 4° C.). Cells were twice washed in ice cold homogenisation buffer containing 10 mMTris-HCl, 1 mM EDTA.2Na, 250 mM sucrose, 1 mM PMSF, 0.3 mM indomethacin, pH 7.4, homogenised and re-centrifuged as before. The supernatant was stored on ice and pellets re-homogenised and re-spun. Supernatants were pooled and centrifuged at 40000 g, 10 minutes, 4° C. Resultant membrane pellets were stored at −80° C. until use.
(§2) For assay, membranes expressing human EP4, EP3, EP2 or EP1 receptors were incubated in Millipore (MHVBN45) plates containing assay buffer, radiolabelled [^3H]PGE2 and 0.1 to 10 000 nM concentrations of compounds. Incubations were performed at suitable temperatures and for suitable times to allow equilibrium to be reached. Non-specific binding was determined in the presence of 10 uM PGE2. Bound and free radiolabel was separated by vacuum manifold filtration using appropriate wash buffers, and bound radiolabel was determined by scintillation counting. Constituents of each of the buffers are included in table 1 below.
(§3) The affinity or pKi of each compound for each receptor was calculated from the concentration causing 50% radioligand displacement (IC50) using the Cheng-Prusoff equation: […]

The target in the next test is T2, human EP2 receptor (Homo sapiens, UniProt P43116).
T2 construct: expressed in transfected cells
Description: Binding ability to human EP receptors ([3H]PGE2 displacement), EP2. As to conditions: membranes from cells stably transfected with human EP2 receptor; 3 nM [3H]PGE2; Cheng-Prusoff from IC50; read-out: pKi EP2 (converted). How it is done:
as §1, §2, §3

For another test, the target named is T3, human EP4 receptor (Homo sapiens, UniProt P35408).
T3 construct: expressed in transfected cells
Briefly: Binding ability to human EP receptors ([3H]PGE2 displacement), EP4. As to conditions: membranes from cells stably transfected with human EP4 receptor; 1 nM [3H]PGE2; Cheng-Prusoff from IC50; read-out: pKi EP4 (converted). How it is done:
as §1, §2, §3

A value given as a limit tells only on which side of the number the result lay.

T3 sequence (P35408 whole entry): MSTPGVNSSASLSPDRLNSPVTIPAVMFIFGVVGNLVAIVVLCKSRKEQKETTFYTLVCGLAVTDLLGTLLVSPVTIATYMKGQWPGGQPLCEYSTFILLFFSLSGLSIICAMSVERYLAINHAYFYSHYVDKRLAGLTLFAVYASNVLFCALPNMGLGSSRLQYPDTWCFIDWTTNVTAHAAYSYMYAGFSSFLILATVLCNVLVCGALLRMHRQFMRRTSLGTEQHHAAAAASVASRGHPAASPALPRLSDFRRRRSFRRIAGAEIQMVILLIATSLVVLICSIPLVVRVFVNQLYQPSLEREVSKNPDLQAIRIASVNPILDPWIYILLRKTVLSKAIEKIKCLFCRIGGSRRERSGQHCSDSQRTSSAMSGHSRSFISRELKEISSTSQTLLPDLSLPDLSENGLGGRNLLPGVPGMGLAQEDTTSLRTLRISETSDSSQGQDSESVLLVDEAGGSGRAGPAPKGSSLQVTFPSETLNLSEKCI
T2 sequence (P43116 whole entry): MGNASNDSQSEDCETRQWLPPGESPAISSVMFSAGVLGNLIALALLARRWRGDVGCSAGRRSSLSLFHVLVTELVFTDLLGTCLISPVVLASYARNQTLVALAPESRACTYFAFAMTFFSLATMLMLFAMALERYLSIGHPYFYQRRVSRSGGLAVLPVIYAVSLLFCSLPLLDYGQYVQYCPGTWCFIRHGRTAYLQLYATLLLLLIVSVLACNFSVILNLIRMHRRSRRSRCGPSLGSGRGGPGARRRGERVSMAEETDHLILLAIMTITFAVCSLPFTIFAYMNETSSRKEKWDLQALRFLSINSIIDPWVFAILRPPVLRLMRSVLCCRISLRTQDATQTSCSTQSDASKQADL

Consider `COc1ccc(-c2cc(C(=O)Nc3ccc(CC(=O)O)cc3)c(C(F)(F)F)o2)cc1` [Compound 4, (4-{[5-(4-Methoxy-phenyl)-2-trifluoromethyl-furan-3-carbonyl]-amino}-phenyl)-acetic acid], for which the Ki at human EP3 receptor was above 10 µM; at human EP2 receptor, above 10 µM; at human EP4 receptor it was below 10 µM.

Turning to `COc1ccc(-c2cc(C(=O)Nc3ccc(CC(=O)O)cc3)c(C)o2)cc1` [Compound 6, (4-{[5-(4-Methoxy-phenyl)-2-methyl-furan-3-carbonyl]-amino}-phenyl)-acetic acid], the results for the Ki at human EP3 receptor, on human EP2 receptor and at human EP4 receptor were above 10 µM, above 10 µM and below 1 µM, respectively.

Consider `O=C(O)Cc1ccc(NC(=O)c2coc(-c3ccccc3)c2)cc1` [Compound 10, {4-[(5-Phenyl-furan-3-carbonyl)-amino]-phenyl}-acetic acid], for which the Ki on human EP3 receptor was above 10 µM; on human EP2 receptor, above 3.16 µM; on human EP4 receptor, below 1 µM.

On to `O=C(O)Cc1ccc(NC(=O)c2coc(-c3ccc(OC(F)F)cc3)c2)cc1` [Compound 13, (4-{[5-(4-Difluoromethoxy-phenyl)-furan-3-carbonyl]-amino}-phenyl)-acetic acid], for which the results for the Ki on human EP3 receptor, on human EP2 receptor and at human EP4 receptor were above 10 µM, above 10 µM and below 1 µM, respectively.

With `Cc1oc(-c2ccc(OC(F)F)cc2)cc1C(=O)Nc1ccc(CC(=O)O)cc1` [Compound 18, (4-{[5-(4-Difluoromethoxy-phenyl)-2-methyl-furan-3-carbonyl]-amino}-phenyl)-acetic acid], the Ki was above 10 µM on human EP3 receptor, above 3.16 µM at human EP2 receptor and below 1 µM at human EP4 receptor.

Regarding `Cc1cc(C(=O)NCc2ccc(C(=O)O)cc2)c(-c2ccccc2)o1` [Compound 20, 4-{[(5-Methyl-2-phenyl-furan-3-carbonyl)-amino]-methyl}-benzoic acid], the Ki was above 10 µM on human EP3 receptor, above 10 µM at human EP2 receptor and below 10 µM at human EP4 receptor.

Take `Cc1oc(-c2ccccc2)cc1C(=O)Nc1ccc(CC(=O)NS(=O)(=O)c2ccccc2)cc1` [Compound 21, 2-Methyl-5-phenyl-furan-3-carboxylic acid [4-(2-benzenesulfonylamino-2-oxo-ethyl)-phenyl]-amide]: the Ki on human EP3 receptor is above 10 µM; on human EP2 receptor, above 1 µM; on human EP4 receptor, below 0.1 µM.

In the case of `COc1ccc(-c2cc(C(=O)Nc3ccc(CC(=O)NS(=O)(=O)c4ccccc4)cc3)c(C(F)(F)F)o2)cc1` [Compound 22, 5-(4-Methoxy-phenyl)-2-trifluoromethyl-furan-3-carboxylic acid [4-(2-benzenesulfonylamino-2-oxo-ethyl)-phenyl]-amide], the Ki at human EP3 receptor is above 10 µM; at human EP2 receptor, above 1 µM; at human EP4 receptor, below 1 µM.

`COc1ccc(-c2cc(C(=O)Nc3ccc(CC(=O)NS(=O)(=O)c4ccccc4)cc3)c(C)o2)cc1` [Compound 23, 5-(4-Methoxy-phenyl)-2-methyl-furan-3-carboxylic acid [4-(2-benzenesulfonylamino-2-oxo-ethyl)-phenyl]-amide]: the Ki on human EP3 receptor is above 10 µM; at human EP2 receptor, above 1 µM; on human EP4 receptor, below 0.1 µM.

As to `Cc1ccccc1S(=O)(=O)NC(=O)Cc1ccc(NC(=O)c2coc(-c3ccccc3)c2)cc1` [Compound 24, 5-Phenyl-furan-3-carboxylic acid {4-[2-oxo-2-(toluene-2-sulfonylamino)-ethyl]-phenyl}-amide], the values for the Ki at human EP3 receptor, on human EP2 receptor and at human EP4 receptor were above 10 µM, above 0.1 µM and below 1 µM, respectively.

Take `Cc1oc(-c2ccc(OC(F)F)cc2)cc1C(=O)Nc1ccc(CC(=O)NS(=O)(=O)c2ccccc2)cc1` [Compound 25, 5-(4-Difluoromethoxy-phenyl)-2-methyl-furan-3-carboxylic acid [4-(2-benzenesulfonylamino-2-oxo-ethyl)-phenyl]-amide]: the Ki was above 10 µM at human EP3 receptor, above 1 µM at human EP2 receptor and below 0.1 µM on human EP4 receptor.

For the compound `Cc1ccccc1S(=O)(=O)NC(=O)Cc1ccc(NC(=O)c2cc(-c3ccc(OC(F)F)cc3)oc2C)cc1` [Compound 26, 5-(4-Difluoromethoxy-phenyl)-2-methyl-furan-3-carboxylic acid {4-[2-oxo-2-(toluene-2-sulfonylamino)-ethyl]-phenyl}-amide], the Ki is above 10 µM at human EP3 receptor, above 0.316 µM at human EP2 receptor and below 0.1 µM at human EP4 receptor.

Take `CCCS(=O)(=O)NC(=O)Cc1ccc(NC(=O)c2cc(-c3ccc(OC(F)F)cc3)oc2C)cc1` [Compound 27, 5-(4-Difluoromethoxy-phenyl)-2-methyl-furan-3-carboxylic acid {4-[2-oxo-2-(propane-1-sulfonylamino)-ethyl]-phenyl}-amide]: the figures for the Ki at human EP3 receptor, at human EP2 receptor and at human EP4 receptor were above 10 µM, above 10 µM and below 1 µM, respectively.

With `Cc1noc(C)c1S(=O)(=O)NC(=O)Cc1ccc(NC(=O)c2cc(-c3ccc(OC(F)F)cc3)oc2C)cc1` [Compound 28, 5-(4-Difluoromethoxy-phenyl)-2-methyl-furan-3-carboxylic acid {4-[2-(3,5-dimethyl-isoxazole-4-sulfonylamino)-2-oxo-ethyl]-phenyl}-amide], the Ki was above 10 µM on human EP3 receptor, above 10 µM on human EP2 receptor and below 1 µM at human EP4 receptor.

On to `Cc1oc(-c2ccc(OC(F)F)cc2)cc1C(=O)Nc1ccc(CC(=O)NS(=O)(=O)c2cccs2)cc1` [Compound 29, 5-(4-Difluoromethoxy-phenyl)-2-methyl-furan-3-carboxylic acid {4-[2-oxo-2-(thiophene-2-sulfonylamino)-ethyl]-phenyl}-amide], for which the Ki at human EP3 receptor is above 10 µM; on human EP2 receptor it was above 3.16 µM; on human EP4 receptor, below 0.1 µM.

Turning to `Cc1ccc(S(=O)(=O)NC(=O)Cc2ccc(NC(=O)c3cc(-c4ccc(OC(F)F)cc4)oc3C)cc2)nc1` [Compound 30, 5-(4-Difluoromethoxy-phenyl)-2-methyl-furan-3-carboxylic acid {4-[2-(5-methyl-pyridine-2-sulfonylamino)-2-oxo-ethyl]-phenyl}-amide], the Ki is above 10 µM on human EP3 receptor, above 1 µM at human EP2 receptor and below 0.1 µM at human EP4 receptor.

Regarding `Cc1oc(-c2ccc(OC(F)F)cc2)cc1C(=O)Nc1ccc(CC(=O)NS(=O)(=O)Cc2ccccc2)cc1` [Compound 31, 5-(4-Difluoromethoxy-phenyl)-2-methyl-furan-3-carboxylic acid [4-(2-oxo-2-phenylmethanesulfonylamino-ethyl)-phenyl]-amide], the Ki on human EP3 receptor is above 10 µM; at human EP2 receptor it was above 1 µM; on human EP4 receptor, below 0.1 µM.

Consider `Cc1oc(-c2ccc(OC(F)F)cc2)cc1C(=O)Nc1ccc(CC(=O)NS(=O)(=O)c2ccccc2C(F)(F)F)cc1` [Compound 32, 5-(4-Difluoromethoxy-phenyl)-2-methyl-furan-3-carboxylic acid {4-[2-oxo-2-(2-trifluoromethyl-benzenesulfonylamino)-ethyl]-phenyl}-amide], for which the Ki at human EP3 receptor is above 3.16 µM; at human EP2 receptor, above 3.16 µM; at human EP4 receptor, below 0.1 µM.

Take `Cc1oc(-c2ccc(OC(F)F)cc2)cc1C(=O)Nc1ccc(CC(=O)NS(=O)(=O)c2ccc(O)cc2)cc1` [Compound 35, 5-(4-Difluoromethoxy-phenyl)-2-methyl-furan-3-carboxylic acid {4-[2-(4-hydroxy-benzenesulfonylamino)-2-oxo-ethyl]-phenyl}-amide]: the Ki was above 10 µM at human EP3 receptor, above 3.16 µM at human EP2 receptor and below 0.1 µM on human EP4 receptor.

Turning to `Cc1oc(-c2ccc(OC(F)F)cc2)cc1C(=O)Nc1ccc(CC(=O)NS(=O)(=O)c2ccccc2F)cc1` [Compound 36, 5-(4-Difluoromethoxy-phenyl)-2-methyl-furan-3-carboxylic acid {4-[2-(2-fluoro-benzenesulfonylamino)-2-oxo-ethyl]-phenyl}-amide], the values for the Ki on human EP3 receptor, on human EP2 receptor and on human EP4 receptor were above 10 µM, above 1 µM and below 0.1 µM, respectively.
